In the kinase profiling compilation of Christmann-Franck et al. (2016):

Experiments:
Assay in all cases: radiometric filter-binding kinase assay
TSSK1B (human) = TSSK1B (human) (UniProt Q9BXA7)
IRAK1 (human) = IRAK1 (human) (UniProt P51617)
STK24 (human) = STK24 (human) (UniProt Q9Y6E0)
[1] = system: OXSR1 (human), O95747 [T185E]
ZAP70 (human) = ZAP70 (human) (UniProt P43403)
TTBK1 (human) = TTBK1 (human) (UniProt Q5TCY1)
STK16 (human) = STK16 (human) (UniProt O75716)
PTK6 (human) = PTK6 (human) (UniProt Q13882)
TEK (human) = TEK (human) (UniProt Q02763)
ABL1 (human) = ABL1 (human) (UniProt P00519)
TLK1 (human) = TLK1 (human) (UniProt Q9UKI8)
DDR2 (human) = DDR2 (human) (UniProt Q16832)
EIF2AK3 (human) = EIF2AK3 (human) (UniProt Q9NZJ5)
ULK2 (human) = ULK2 (human) (UniProt Q8IYT8)
ULK1 (human) = ULK1 (human) (UniProt O75385)
TESK1 (human) = TESK1 (human) (UniProt Q15569)
STK33 (human) = STK33 (human) (UniProt Q9BYT3)
STK33 (human), sequence (Q9BYT3 whole entry, looked up): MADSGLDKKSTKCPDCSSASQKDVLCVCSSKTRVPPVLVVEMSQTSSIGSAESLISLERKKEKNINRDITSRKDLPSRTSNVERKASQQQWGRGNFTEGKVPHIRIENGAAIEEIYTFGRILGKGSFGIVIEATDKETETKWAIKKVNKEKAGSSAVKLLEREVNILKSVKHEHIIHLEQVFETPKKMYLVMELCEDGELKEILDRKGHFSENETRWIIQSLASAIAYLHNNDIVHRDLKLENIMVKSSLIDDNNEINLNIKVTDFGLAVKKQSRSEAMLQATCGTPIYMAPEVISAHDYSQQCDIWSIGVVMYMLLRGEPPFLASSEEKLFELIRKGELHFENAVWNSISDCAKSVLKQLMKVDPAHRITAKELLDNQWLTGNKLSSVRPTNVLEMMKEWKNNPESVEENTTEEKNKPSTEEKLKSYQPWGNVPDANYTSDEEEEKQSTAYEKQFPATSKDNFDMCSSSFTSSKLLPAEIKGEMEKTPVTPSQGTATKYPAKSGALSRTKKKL

SIK2 (human) = SIK2 (human) (UniProt Q9H0K1)
SIK2 (human), sequence (Q9H0K1 whole entry, looked up): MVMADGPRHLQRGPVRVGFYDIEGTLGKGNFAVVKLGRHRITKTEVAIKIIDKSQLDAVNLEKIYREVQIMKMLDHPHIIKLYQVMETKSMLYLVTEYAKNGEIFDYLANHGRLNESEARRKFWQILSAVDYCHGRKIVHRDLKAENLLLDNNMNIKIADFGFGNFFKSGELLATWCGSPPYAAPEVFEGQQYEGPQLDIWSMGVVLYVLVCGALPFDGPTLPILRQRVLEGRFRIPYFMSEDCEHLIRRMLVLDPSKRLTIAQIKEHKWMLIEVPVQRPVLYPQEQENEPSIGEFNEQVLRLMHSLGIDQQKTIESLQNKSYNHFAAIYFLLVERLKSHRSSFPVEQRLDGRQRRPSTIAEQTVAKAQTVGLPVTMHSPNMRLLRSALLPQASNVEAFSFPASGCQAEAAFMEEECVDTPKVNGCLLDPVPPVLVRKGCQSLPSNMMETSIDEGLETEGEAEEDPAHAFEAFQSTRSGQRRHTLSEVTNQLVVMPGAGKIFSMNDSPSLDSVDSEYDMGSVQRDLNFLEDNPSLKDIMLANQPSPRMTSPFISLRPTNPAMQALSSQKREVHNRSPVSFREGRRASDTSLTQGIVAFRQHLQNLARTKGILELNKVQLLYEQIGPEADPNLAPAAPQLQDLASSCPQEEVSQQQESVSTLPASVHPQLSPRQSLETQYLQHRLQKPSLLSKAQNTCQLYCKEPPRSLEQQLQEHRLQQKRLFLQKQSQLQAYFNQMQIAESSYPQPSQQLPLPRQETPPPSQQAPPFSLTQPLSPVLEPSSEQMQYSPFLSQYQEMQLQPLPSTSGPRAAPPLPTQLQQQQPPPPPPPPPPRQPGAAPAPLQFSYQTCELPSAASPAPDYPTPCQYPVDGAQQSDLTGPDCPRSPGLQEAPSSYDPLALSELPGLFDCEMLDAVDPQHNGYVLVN

PRKCG (human) = PRKCG (human) (UniProt P05129)
SRPK1 (human) = SRPK1 (human) (UniProt Q96SB4)
CSNK1G2 (human) = CSNK1G2 (human) (UniProt P78368)
GSK3B (human) = GSK3B (human) (UniProt P49841)
CDK9 CCNT1 (human) = CDK9 CCNT1 (human) (UniProt P50750+O60563)
CDK9 CCNT1 (human), sequence (O60563 whole entry, looked up): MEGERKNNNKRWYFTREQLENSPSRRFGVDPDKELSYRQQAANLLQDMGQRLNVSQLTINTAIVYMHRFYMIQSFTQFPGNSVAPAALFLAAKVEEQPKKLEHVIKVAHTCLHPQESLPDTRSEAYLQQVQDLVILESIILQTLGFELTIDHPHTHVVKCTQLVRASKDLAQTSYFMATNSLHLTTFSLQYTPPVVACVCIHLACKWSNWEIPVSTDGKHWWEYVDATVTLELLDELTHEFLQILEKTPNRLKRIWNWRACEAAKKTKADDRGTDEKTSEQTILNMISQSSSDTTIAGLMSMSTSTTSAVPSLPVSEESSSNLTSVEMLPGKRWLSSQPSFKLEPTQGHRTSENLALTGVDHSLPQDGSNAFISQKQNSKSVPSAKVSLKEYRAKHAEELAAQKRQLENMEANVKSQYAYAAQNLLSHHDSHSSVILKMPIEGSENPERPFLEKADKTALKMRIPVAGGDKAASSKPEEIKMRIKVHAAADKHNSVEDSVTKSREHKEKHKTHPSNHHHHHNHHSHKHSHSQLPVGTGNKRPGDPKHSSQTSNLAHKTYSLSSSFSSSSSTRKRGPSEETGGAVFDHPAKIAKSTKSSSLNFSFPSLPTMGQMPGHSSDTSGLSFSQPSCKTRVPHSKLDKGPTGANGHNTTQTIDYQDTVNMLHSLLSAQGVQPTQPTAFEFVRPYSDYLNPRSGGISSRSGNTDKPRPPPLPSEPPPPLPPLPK
CDK9 CCNT1 (human), sequence (P50750 whole entry, looked up): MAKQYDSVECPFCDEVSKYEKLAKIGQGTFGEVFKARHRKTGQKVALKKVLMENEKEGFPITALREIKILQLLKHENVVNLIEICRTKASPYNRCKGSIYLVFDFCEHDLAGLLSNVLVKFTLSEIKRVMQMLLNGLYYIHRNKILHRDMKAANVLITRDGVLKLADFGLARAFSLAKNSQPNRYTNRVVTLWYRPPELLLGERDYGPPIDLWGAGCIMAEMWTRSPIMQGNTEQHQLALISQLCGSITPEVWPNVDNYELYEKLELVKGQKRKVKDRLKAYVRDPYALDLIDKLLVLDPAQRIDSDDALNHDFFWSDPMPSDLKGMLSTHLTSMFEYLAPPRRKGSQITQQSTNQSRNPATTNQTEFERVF

SIK3 (human) = SIK3 (human) (UniProt Q9Y2K2)
SIK3 (human), sequence (Q9Y2K2 whole entry, looked up): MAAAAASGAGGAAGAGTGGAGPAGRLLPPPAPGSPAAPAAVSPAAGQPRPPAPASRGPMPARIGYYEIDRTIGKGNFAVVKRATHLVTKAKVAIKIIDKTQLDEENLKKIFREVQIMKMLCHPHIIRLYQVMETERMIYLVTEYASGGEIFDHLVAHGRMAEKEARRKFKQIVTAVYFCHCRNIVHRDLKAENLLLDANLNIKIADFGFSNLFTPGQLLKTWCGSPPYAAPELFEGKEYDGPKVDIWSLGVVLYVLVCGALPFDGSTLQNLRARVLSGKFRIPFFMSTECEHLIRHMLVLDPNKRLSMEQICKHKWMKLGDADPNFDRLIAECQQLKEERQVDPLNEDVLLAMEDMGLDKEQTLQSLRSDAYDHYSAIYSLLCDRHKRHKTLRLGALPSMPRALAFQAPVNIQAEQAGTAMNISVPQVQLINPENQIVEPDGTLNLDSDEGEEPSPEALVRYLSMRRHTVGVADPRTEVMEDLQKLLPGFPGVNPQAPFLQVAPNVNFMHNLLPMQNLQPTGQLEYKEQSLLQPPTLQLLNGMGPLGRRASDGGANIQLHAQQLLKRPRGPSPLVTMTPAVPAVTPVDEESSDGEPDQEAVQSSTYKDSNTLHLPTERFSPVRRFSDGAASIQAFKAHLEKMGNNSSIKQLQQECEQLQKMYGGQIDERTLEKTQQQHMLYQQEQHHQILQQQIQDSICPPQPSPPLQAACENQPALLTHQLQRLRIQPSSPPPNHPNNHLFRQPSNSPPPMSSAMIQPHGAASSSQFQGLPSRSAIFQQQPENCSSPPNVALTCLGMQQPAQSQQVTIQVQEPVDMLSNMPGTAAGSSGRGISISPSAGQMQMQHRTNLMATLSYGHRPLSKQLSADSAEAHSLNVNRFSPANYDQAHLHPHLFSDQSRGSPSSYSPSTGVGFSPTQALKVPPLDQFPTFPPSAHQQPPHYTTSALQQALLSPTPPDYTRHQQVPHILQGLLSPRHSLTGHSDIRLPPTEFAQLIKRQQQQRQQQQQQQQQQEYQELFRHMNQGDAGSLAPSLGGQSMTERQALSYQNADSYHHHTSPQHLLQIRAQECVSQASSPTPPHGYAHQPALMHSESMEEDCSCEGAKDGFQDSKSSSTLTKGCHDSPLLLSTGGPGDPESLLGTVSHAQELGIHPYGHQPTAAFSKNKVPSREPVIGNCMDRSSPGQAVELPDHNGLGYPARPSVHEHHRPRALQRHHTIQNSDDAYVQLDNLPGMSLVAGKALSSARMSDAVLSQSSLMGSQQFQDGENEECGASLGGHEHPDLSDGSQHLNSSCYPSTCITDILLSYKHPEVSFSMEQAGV

WNK1 (human) = WNK1 (human) (UniProt Q9H4A3)

IRAK1 (human), sequence (P51617 whole entry, looked up): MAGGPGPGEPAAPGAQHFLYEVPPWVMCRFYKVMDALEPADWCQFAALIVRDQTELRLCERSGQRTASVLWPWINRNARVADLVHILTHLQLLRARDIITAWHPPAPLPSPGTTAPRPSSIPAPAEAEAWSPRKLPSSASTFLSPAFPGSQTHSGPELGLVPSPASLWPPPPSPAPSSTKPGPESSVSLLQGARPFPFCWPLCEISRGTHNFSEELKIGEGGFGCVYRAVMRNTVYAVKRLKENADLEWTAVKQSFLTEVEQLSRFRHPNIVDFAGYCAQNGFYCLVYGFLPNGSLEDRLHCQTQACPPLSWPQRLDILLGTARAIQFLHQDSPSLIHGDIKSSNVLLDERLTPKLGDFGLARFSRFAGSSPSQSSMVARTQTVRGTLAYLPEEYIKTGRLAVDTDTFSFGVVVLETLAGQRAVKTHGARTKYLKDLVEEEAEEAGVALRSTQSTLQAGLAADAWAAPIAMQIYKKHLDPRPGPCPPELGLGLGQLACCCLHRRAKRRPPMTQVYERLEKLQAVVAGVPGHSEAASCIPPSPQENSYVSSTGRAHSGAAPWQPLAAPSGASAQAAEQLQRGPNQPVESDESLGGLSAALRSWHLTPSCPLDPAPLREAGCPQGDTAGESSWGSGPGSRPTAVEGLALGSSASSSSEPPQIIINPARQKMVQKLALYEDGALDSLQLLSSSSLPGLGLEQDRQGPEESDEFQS
STK16 (human), sequence (O75716 whole entry, looked up): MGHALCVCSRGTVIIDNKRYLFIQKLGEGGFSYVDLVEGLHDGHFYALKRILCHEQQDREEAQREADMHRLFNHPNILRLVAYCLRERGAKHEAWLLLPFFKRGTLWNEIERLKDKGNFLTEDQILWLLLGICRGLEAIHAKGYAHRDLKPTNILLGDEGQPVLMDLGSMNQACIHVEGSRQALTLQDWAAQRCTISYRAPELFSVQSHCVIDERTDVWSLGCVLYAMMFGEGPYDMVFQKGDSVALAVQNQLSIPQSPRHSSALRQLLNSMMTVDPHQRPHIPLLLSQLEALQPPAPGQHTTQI

Cc1cc(NC(=O)c2cccc(NC(=O)/C=C/CN(C)C)c2)ccc1Nc1nccc(-c2cccnc2)n1
residual activity (TSSK1B (human); compound 0.1 µM): 91%
residual activity (TSSK1B (human); compound 1.0 µM): 86%
residual activity (IRAK1 (human); compound 0.1 µM): 93%
residual activity (IRAK1 (human); compound 1.0 µM): 63%
residual activity (STK24 (human); compound 0.1 µM): 85%
residual activity (STK24 (human); compound 1.0 µM): 82%
residual activity ([1]; compound 0.1 µM): 96%
residual activity ([1]; compound 1.0 µM): 91%
residual activity (ZAP70 (human); compound 0.1 µM): 105%
residual activity (TTBK1 (human); compound 0.1 µM): 92%
residual activity (TTBK1 (human); compound 1.0 µM): 83%
residual activity (STK16 (human); compound 0.1 µM): 110%
residual activity (STK16 (human); compound 1.0 µM): 101%
residual activity (PTK6 (human); compound 1.0 µM): 75%
residual activity (TEK (human); compound 0.1 µM): 105%
residual activity (TEK (human); compound 1.0 µM): 98%
residual activity (ABL1 (human); compound 0.1 µM): 97%
residual activity (ABL1 (human); compound 1.0 µM): 86%
residual activity (TLK1 (human); compound 0.1 µM): 99%
residual activity (TLK1 (human); compound 1.0 µM): 100%
residual activity (DDR2 (human); compound 0.1 µM): 106%
residual activity (DDR2 (human); compound 1.0 µM): 97%
residual activity (EIF2AK3 (human); compound 0.1 µM): 103%
residual activity (EIF2AK3 (human); compound 1.0 µM): 93%
residual activity (ULK2 (human); compound 0.1 µM): 28%
residual activity (ULK2 (human); compound 1.0 µM): 69%
residual activity (ULK1 (human); compound 0.1 µM): 27%
residual activity (ULK1 (human); compound 1.0 µM): 67%
residual activity (TESK1 (human); compound 0.1 µM): 89%
residual activity (TESK1 (human); compound 1.0 µM): 93%
residual activity (STK33 (human); compound 0.1 µM): 99%
residual activity (STK33 (human); compound 1.0 µM): 90%
residual activity (SIK2 (human); compound 0.1 µM): 100%
residual activity (SIK2 (human); compound 1.0 µM): 105%
residual activity (PRKCG (human); compound 0.1 µM): 92%
residual activity (PRKCG (human); compound 1.0 µM): 91%
residual activity (SRPK1 (human); compound 0.1 µM): 97%
residual activity (SRPK1 (human); compound 1.0 µM): 84%
residual activity (CSNK1G2 (human); compound 0.1 µM): 109%
residual activity (CSNK1G2 (human); compound 1.0 µM): 87%
residual activity (GSK3B (human); compound 0.1 µM): 114%
residual activity (GSK3B (human); compound 1.0 µM): 90%
residual activity (CDK9 CCNT1 (human); compound 0.1 µM): 85%
residual activity (CDK9 CCNT1 (human); compound 1.0 µM): 80%
residual activity (SIK3 (human); compound 0.1 µM): 88%
residual activity (SIK3 (human); compound 1.0 µM): 79%

COc1ccc(N(C(=O)Nc2c(C)cccc2C)c2cc(Nc3ccc(N4CCN(C)CC4)cc3)ncn2)c(OC)c1
residual activity (TSSK1B (human); compound 0.01 µM): 108%
residual activity (TSSK1B (human); compound 0.1 µM): 102%
residual activity (TSSK1B (human); compound 1.0 µM): 62%
residual activity (IRAK1 (human); compound 0.01 µM): 98%
residual activity (IRAK1 (human); compound 0.1 µM): 95%
residual activity (IRAK1 (human); compound 1.0 µM): 95%
residual activity (STK24 (human); compound 0.01 µM): 105%
residual activity (STK24 (human); compound 1.0 µM): 40%
residual activity ([1]; compound 0.01 µM): 101%
residual activity ([1]; compound 0.1 µM): 93%
residual activity ([1]; compound 1.0 µM): 57%
residual activity (ZAP70 (human); compound 0.01 µM): 96%
residual activity (ZAP70 (human); compound 0.1 µM): 98%
residual activity (ZAP70 (human); compound 1.0 µM): 94%
residual activity (TTBK1 (human); compound 0.01 µM): 100%
residual activity (TTBK1 (human); compound 0.1 µM): 117%
residual activity (TTBK1 (human); compound 1.0 µM): 112%
residual activity (STK16 (human); compound 0.01 µM): 106%
residual activity (STK16 (human); compound 0.1 µM): 106%
residual activity (STK16 (human); compound 1.0 µM): 106%
residual activity (PTK6 (human); compound 0.01 µM): 97%
residual activity (PTK6 (human); compound 0.1 µM): 24%
residual activity (PTK6 (human); compound 1.0 µM): 3%
residual activity (TEK (human); compound 0.01 µM): 116%
residual activity (TEK (human); compound 0.1 µM): 82%
residual activity (TEK (human); compound 1.0 µM): 42%
residual activity (TLK1 (human); compound 0.01 µM): 98%
residual activity (TLK1 (human); compound 0.1 µM): 93%
residual activity (TLK1 (human); compound 1.0 µM): 93%
residual activity (DDR2 (human); compound 0.01 µM): 17%
residual activity (DDR2 (human); compound 0.1 µM): 8%
residual activity (DDR2 (human); compound 1.0 µM): 6%
residual activity (EIF2AK3 (human); compound 0.01 µM): 91%
residual activity (EIF2AK3 (human); compound 0.1 µM): 97%
residual activity (EIF2AK3 (human); compound 1.0 µM): 95%
residual activity (WNK1 (human); compound 0.01 µM): 100%
residual activity (WNK1 (human); compound 0.1 µM): 107%
residual activity (WNK1 (human); compound 1.0 µM): 102%
residual activity (TESK1 (human); compound 0.01 µM): 82%
residual activity (TESK1 (human); compound 0.1 µM): 29%
residual activity (TESK1 (human); compound 1.0 µM): 16%
residual activity (STK33 (human); compound 0.01 µM): 113%
residual activity (STK33 (human); compound 0.1 µM): 106%
residual activity (STK33 (human); compound 1.0 µM): 107%
residual activity (PRKCG (human); compound 0.01 µM): 101%
residual activity (PRKCG (human); compound 0.1 µM): 104%
residual activity (PRKCG (human); compound 1.0 µM): 96%
residual activity (SRPK1 (human); compound 0.01 µM): 96%
residual activity (SRPK1 (human); compound 0.1 µM): 85%
residual activity (SRPK1 (human); compound 1.0 µM): 90%
residual activity (CSNK1G2 (human); compound 0.01 µM): 96%
residual activity (CSNK1G2 (human); compound 0.1 µM): 93%
residual activity (GSK3B (human); compound 1.0 µM): 88%
residual activity (CDK9 CCNT1 (human); compound 0.01 µM): 104%
residual activity (CDK9 CCNT1 (human); compound 0.1 µM): 87%
residual activity (CDK9 CCNT1 (human); compound 1.0 µM): 95%

CNc1nc(-c2ccc3c(N)n[nH]c3c2)cc(N2C[C@@H](C(=O)NC3CCCCC3)CC[C@H]2C)n1
residual activity (TSSK1B (human); compound 1.0 µM): 88%
residual activity (TSSK1B (human); compound 10.0 µM): 64%
residual activity (IRAK1 (human); compound 1.0 µM): 105%
residual activity (IRAK1 (human); compound 10.0 µM): 106%
residual activity (STK24 (human); compound 1.0 µM): 110%
residual activity (STK24 (human); compound 10.0 µM): 110%
residual activity ([1]; compound 1.0 µM): 112%
residual activity ([1]; compound 10.0 µM): 103%
residual activity (ZAP70 (human); compound 1.0 µM): 98%
residual activity (TTBK1 (human); compound 1.0 µM): 112%
residual activity (TTBK1 (human); compound 10.0 µM): 99%
residual activity (STK16 (human); compound 1.0 µM): 105%
residual activity (STK16 (human); compound 10.0 µM): 104%
residual activity (PTK6 (human); compound 1.0 µM): 127%
residual activity (PTK6 (human); compound 10.0 µM): 116%
residual activity (TEK (human); compound 1.0 µM): 105%
residual activity (TEK (human); compound 10.0 µM): 76%
residual activity (ABL1 (human); compound 1.0 µM): 116%
residual activity (ABL1 (human); compound 10.0 µM): 100%
residual activity (TLK1 (human); compound 1.0 µM): 101%
residual activity (TLK1 (human); compound 10.0 µM): 115%
residual activity (DDR2 (human); compound 1.0 µM): 107%
residual activity (EIF2AK3 (human); compound 1.0 µM): 100%
residual activity (EIF2AK3 (human); compound 10.0 µM): 100%
residual activity (WNK1 (human); compound 1.0 µM): 109%
residual activity (WNK1 (human); compound 10.0 µM): 104%
residual activity (TESK1 (human); compound 1.0 µM): 91%
residual activity (TESK1 (human); compound 10.0 µM): 101%
residual activity (STK33 (human); compound 1.0 µM): 89%
residual activity (STK33 (human); compound 10.0 µM): 43%
residual activity (SIK2 (human); compound 1.0 µM): 106%
residual activity (SIK2 (human); compound 10.0 µM): 78%
residual activity (PRKCG (human); compound 10.0 µM): 87%
residual activity (SRPK1 (human); compound 0.01 µM): 106%
residual activity (SRPK1 (human); compound 0.1 µM): 120%
residual activity (SRPK1 (human); compound 1.0 µM): 104%
residual activity (SRPK1 (human); compound 10.0 µM): 90%
residual activity (CSNK1G2 (human); compound 1.0 µM): 101%
residual activity (CSNK1G2 (human); compound 10.0 µM): 97%
residual activity (GSK3B (human); compound 0.01 µM): 108%
residual activity (GSK3B (human); compound 0.1 µM): 111%
residual activity (GSK3B (human); compound 1.0 µM): 106%
residual activity (CDK9 CCNT1 (human); compound 1.0 µM): 92%
residual activity (CDK9 CCNT1 (human); compound 10.0 µM): 100%
residual activity (SIK3 (human); compound 1.0 µM): 76%
residual activity (SIK3 (human); compound 10.0 µM): 58%
